A short description of data set [1]: in vitro. As to conditions: monkey.
In data set [2] the test system is SARS-CoV-2. The data set is described as follows: microbe, parasite or virus in culture. Format: cell-based, SARS-CoV-2 B1.1 lineage. As to conditions: for IC50: Severe acute respiratory syndrome coronavirus 2, Vero C1008, 72 h, read-out: SARS-CoV-2 IC50.
The conditions of data set [3]: mice, i.p.; cited from earlier work.
Details of data set [4]: method as in PMID 29194347, PMID 37238706. Particulars: cited from earlier work.
The conditions of data set [5]: microsomes and hepatocytes of different species; cited from earlier work.
For data set [6], the system named is Dengue virus type 2. The experiment in a line: Activity against Dengue virus type 2 (unpublished results). Format: cell-based.
On the set-up of data set [7]: method as in PMID 34116325. As to conditions: cited from earlier work.
Data set [8] addresses α4β2 subtype of the nicotinic receptor. Set-up: method as in PMID 12088062. Particulars: cited from earlier work.
Data set [9] relates to SARS-CoV-2. As to conditions: reference compound; cited from earlier work.
In data set [10] the test system is SARS-CoV-2. Further details: method as in PMID 37367224. Particulars: lung epithelium cell line; cited from earlier work.
The conditions of data set [11]: non-human primates; cited from earlier work.
Data set [12] concerns SARS-CoV-2. As to conditions: read-out: IC50 against SARS-CoV-2; cited from earlier work.

Like-named read-outs stand apart in the source and are kept apart here.

In data set [1], `CC(=NNC(N)=S)c1ccc2c(c1)nc(Cc1ccccc1)n2C[C@@H]1CCCN2CCCC[C@H]12` [Compound 14, 2-(1-{2-Benzyl-1-[((1S,9aR)-octahydro-2H-quinolizin-1-yl)methyl]-1H-benzo[d]imidazol-5-yl}-ethylidene)hydrazine-1-carbothioamide] showed a CC50 of 70 µM. Also, in data set [2], the IC50 worked out at 12.2 µM.
Consider `Clc1ccc(-n2c3cc(=NCCN4CCOCC4)c(Nc4cccnc4)cc-3nc3ccccc32)cc1` [Compound 8], for which the CC50 in data set [1] is 1.74 µM. For the same molecule, the “SAR analysis summary of anti-SARS-CoV-2 activity” value (“SAR analysis summary” below) in data set [2] is “Inactive/ Cytotoxic”.
For the molecule `Clc1ccc2c(NC[C@@H]3CCCN4CCCC[C@H]34)ccnc2c1` [Compound 10], the “maximum tolerated dose, MTD” value in [3] was “greater than 100 mg/Kg”. The CC50 in data set [1] is 44 µM. Also, in [4], the oral bioavailability entry is reported as “excellent” and the volume of distribution result is reported as “high”. In addition, the metabolic stability result in data set [5] is recorded as “good”. Also, the IC50 in data set [2] was determined as 2.2 µM.
In turn, `c1ccc(Nc2cc3nc4ccccc4n(-c4ccccc4)c-3cc2=NCC23CCCN2CCC3)cc1` [Compound 5] showed a CC50 in [1] of 3.2 µM. In data set [2], the “SAR analysis summary” value is given as “Inactive/ Cytotoxic” and the IC50 is more than 2 µM.
Regarding `Clc1ccc2c(c1)nc(Cn1nnc3ccccc31)n2CC[C@@H]1CCCN2CCCC[C@H]12` [Compound 20], the CC50 in data set [1] stood at 19.4 µM. Further, the half-maximal inhibitory concentration (IC50) in [2] stood at 6.95 µM.
As for `CN1CCCC1=CN=Nc1cccc(Br)c1` [Compound 22], the CC50 in data set [1] was 26.8 µM. In addition, the IC50 in [6] was determined as 24 µM. In addition, in data set [2], the “activity against SARS-CoV-2” value is “no activity” and the IC50 was more than 20 µM.
Consider `Cc1ccc2c(c1)nc(Cn1nnc3ccccc31)n2CC[C@@H]1CCCN2CCCC[C@H]12` [Compound 19], for which the CC50 in [1] is 76.3 µM. Besides, the IC50 in data set [2] turned out to be 15.3 µM.
For `CC(=O)Oc1ccccc1C(=O)Oc1ccc(-c2cc(=S)ss2)cc1` [Compound 24], the CC50 in data set [1] is 32.9 µM. In data set [2], the “activity against SARS-CoV-2” value is given as “no activity” and the IC50 is more than 10 µM.
With `CCN(CC)CCCn1c(Cn2nnc3ccccc32)nc2cc(Cl)ccc21` [Compound 18], in data set [1], the CC50 worked out at 107 µM. For the same molecule, the IC50 in data set [2] worked out at 28.1 µM.
Molecule `CN1CCN(CCN=c2cc3n(-c4ccc(Cl)cc4)c4ccccc4nc-3cc2Nc2cccnc2)CC1` [Compound 7] displayed a CC50 in [1] of 2.62 µM. For the same molecule, in [7], the water solubility entry is “highly water soluble”. Also, in data set [2], the “SAR analysis summary” value is given as “Inactive/ Cytotoxic”. In data set [2] (Severe acute respiratory syndrome coronavirus 2, Vero C1008, read-out: % inhibition of viral replication), the inhibition at 1 µM turned out to be 20.5%.
Molecule `CCN(CC)CCCn1c(Cn2nnc3ccccc32)nc2cc(C(C)=NNC(N)=S)ccc21` [Compound 15, 2-(1-{2-[(1H-Benzo[d][1,2, 3]triazol-1-yl)methyl]-1-[3-(N,N-diethylamino)propyl]-1H-benzo-[d]imidazol-5-yl}ethylidene)hydrazine-1-carbothioamide] showed a CC50 in data set [1] of 67.1 µM. Further, the IC50 in [2] was 14.9 µM.
Take `Clc1ccc(Nc2cc3nc4ccccc4n(-c4ccc(Cl)cc4)c-3cc2=NCC23CCCN2CCC3)cc1` [Compound 6]: in [1], the CC50 was 5.58 µM. Further, in data set [2], the “SAR analysis summary” value was “Inactive/ Cytotoxic” and the IC50 was more than 3 µM.
For `O=c1cccc2n1CC1CC2CN(C(=S)NC2CCCCC2)C1` (stereo not shown) [Compound 23], in data set [8], the Ki was 2.3 µM. In data set [1], this molecule returned a CC50 of more than 100 µM. Further, the IC50 in data set [2] stood at 95.6 µM.
Molecule `CC(=O)/C=C(/C)Nc1cccc2c3c([nH]c12)CCCC3` [Compound 25] gave a CC50 in [1] of more than 100 µM. Besides, the IC50 in data set [2] worked out at 90.1 µM.
With `Clc1ccc(-n2c3cc(=NCCCN4CCCCC4)c(Nc4cccnc4)cc-3nc3ccccc32)cc1` [Compound 9], the CC50 in data set [1] is 1.88 µM. Also, the “SAR analysis summary” value in data set [2] is recorded as “Inactive/ Cytotoxic”.
`CCN(CC)CCCC(C)Nc1ccnc2cc(Cl)ccc12` (stereo not shown) [CQ, chloroquine, reference compound]: the CC50 in data set [1] was found to be 96.3 µM. Further, the IC50 in [2] was found to be 8.5 µM.
`CC(C)/N=c1\cc2n(-c3ccc(Cl)cc3)c3ccccc3nc-2cc1Nc1ccc(Cl)cc1` [clofazimine]: the IC50 in [9] was 0.31 µM. Also, the “reduction in viral RNA load” value in data set [10] was 25%.
`Clc1ccc(Nc2cc3nc4ccccc4n(-c4ccc(Cl)cc4)c-3cc2=NCC2CCCN3CCCCC23)cc1` (stereo not shown) [Compound 1] showed a CC50 in [1] of 3.14 µM. In [2], the “SAR analysis summary” value is “Inactive/ Cytotoxic” and the IC50 was more than 2 µM.
As for `CCN(CC)CCCn1c(Cc2ccccc2)nc2cc(C(C)=NNC(N)=S)ccc21` [Compound 13], in data set [1], the CC50 is 96.1 µM. Besides, the IC50 in data set [2] came to 20 µM.
In the case of `CCN(CC)CCCn1c(Cc2ccccc2)nc2cc(/C(C)=N\NC(N)=O)ccc21` [Compound 12], the CC50 in data set [1] is more than 100 µM. In data set [2], the “SAR analysis summary” value is on record as “Inactive/ Cytotoxic” and the IC50 is more than 100 µM.
Regarding `Clc1ccc2c(NCC34CCCN3CCC4)ccnc2c1` [Compound 11], in data set [3], the “maximum tolerated dose, MTD” value was “greater than 100 mg/Kg”. This molecule also showed a CC50 in data set [1] of 74.5 µM. Besides, in data set [11], the “oral MTD” value was 50 mg/kg/day. In addition, in [4], the oral bioavailability result is recorded as “excellent” and the volume of distribution result is recorded as “high”. In addition, the metabolic stability result in [5] was “good”. Also, in data set [2], the IC50 amounted to 3.7 µM.
`Cc1ccc(Nc2cc3nc4ccccc4n(-c4ccc(C)cc4)c-3cc2=NCC2CCCN3CCCCC23)cc1` (stereo not shown) [Compound 2] had a CC50 in data set [1] of 2.81 µM. Moreover, in data set [2], the IC50 was determined as 1.5 µM.
The matching figures for `c1ccc(Nc2cc3nc4ccccc4n(-c4ccccc4)c-3cc2=NCCCCC23CCCCN2CCCC3)cc1` [Compound 3]: 10.5 µM and 4 µM.
On to `CCN(CCO)CCCC(C)Nc1ccnc2cc(Cl)ccc12` (stereo not shown) [hydroxychloroquine], for which the IC50 in data set [12] was 0.72 µM.
In [1], `Fc1ccc(Nc2cc3nc4ccccc4n(-c4ccc(F)cc4)c-3cc2=NCCCCC23CCCCN2CCCC3)cc1` [Compound 4] registered a CC50 of 2.19 µM. Further, in [2], the “SAR analysis summary” value is given as “Inactive/ Cytotoxic” and the IC50 is more than 1 µM.
In turn, `Oc1ccc(-n2nc3ccc(C(F)(F)F)cc3n2)cc1` [Compound 21] showed a CC50 in [1] of 25.4 µM. Besides, the figures for the IC50 in [6] and in data set [2] were 17 µM and more than 20 µM, respectively. Moreover, in [2], the “activity against SARS-CoV-2” value was “no activity”.

The IC50 is the concentration at which inhibition is half-maximal. A word on the inhibition: it is the drop in the measured response relative to a control, in per cent. A word on the Ki: it is a dissociation constant, usually derived from enzyme kinetics or from competition with a known ligand.

Source of the values: paper PMC11676875, “In Vitro Screening of an In-House Library of Structurally Distinct Chemotypes Towards the Identification of Novel SARS-CoV-2 Inhibitors” (Pharmaceuticals, 2024).
